Data from patent US11155517B2, “4-substituted phenylamine derivatives and their use to protect crops by fighting undesired phytopathogenic micoorganisms” (PI INDUSTRIES LTD., priority 2016, dated 2021).

Experiments:
Assay type in all cases: cell-based
Rhizoctonia solani = Rhizoctonia solani (rice sheath blight/potato black scurf) in vitro test, radial growth on Potato Dextrose Agar; conditions: 168 h, 300 ppm, seven days, 25° C., read-out: % control compared to the untreated check (radial growth)
Botrytis cinerea = Botrytis cinerea (gray mold) in vitro test, radial growth on Potato Dextrose Agar; conditions: 168 h, 300 ppm, seven days, 22° C., read-out: % (control) compared to the untreated check (radial growth)
Fusarium culmorum = Fusarium culmorum (foot rot of cereals) in vitro test, radial growth on Potato Dextrose Agar; conditions: for inhibition of growth at 300 ppm: Fusarium culmorum, 168 h, read-out: % control compared to the untreated check (radial growth)
Septoria lycopersici = Septoria lycopersici (leaf spot of tomato) in vitro test, radial growth on Potato Dextrose Agar; conditions: 168 h, seven days, 25° C., read-out: % control compared to the untreated check (radial growth)
Alternaria solani = Alternaria solani (early blight of tomato/potato) in vitro test, radial growth on Potato Dextrose Agar; conditions: 168 h, 300 ppm, seven days, 25° C., read-out: % control compared to the untreated check (radial growth)
Pyricularia oryzae = assay: microbe, parasite or virus in culture; conditions: 168 h, read-out: % control compared to the untreated check (radial growth)
Colletotrichum capsici = Colletotrichum capsici (anthracnose) in vitro test, radial growth on Potato Dextrose Agar; conditions: Colletotrichum truncatum, 168 h; 300 ppm; seven days, 25° C.; read-out: % control compared to the untreated check (radial growth)

| Structure (SMILES) | inhibition of growth at 300 ppm (Rhizoctonia solani) [%] | inhibition of growth at 300 ppm (Botrytis cinerea) [%] | inhibition of growth at 300 ppm (Fusarium culmorum) [%] | inhibition of growth at 300 ppm (Septoria lycopersici) [%] | inhibition of growth at 300 ppm (Alternaria solani) [%] | inhibition of growth at 300 ppm (Pyricularia oryzae) [%] | inhibition of growth at 300 ppm (Colletotrichum capsici) [%] | % control compared to the untreated check (radial growth) (Fusarium culmorum; 300 ppm, seven days, 25° C.) [%] |
| --- | --- | --- | --- | --- | --- | --- | --- | --- |
| Cc1cc(N=CN2CCOCC2)c(C)cc1Cc1ccccc1F [Compound 55, N-(4-(2-fluorobenzyl)-2,5-dimethylphenyl)-1-morpholinomethanimine] | > 80 | > 80 | 75 | > 70 | > 75 | > 75 | – | – |
| Cc1cc(N=CN2CCOCC2)c(C)cc1Cc1ccc(F)cc1 [Compound 56, N-(4-(4-fluorobenzyl)-2,5-dimethylphenyl)-1-morpholinomethanimine] | > 80 | > 80 | 75 | > 70 | > 75 | > 75 | – | – |
| CCN(C)C=Nc1cc(C)c(Cc2cccc(Cl)c2)cc1Cl [Compound 78, N′-(2-chloro-4-(3-chlorobenzyl)-5-methylphenyl)-N-ethyl-N-methylformimidamide] | > 80 | > 80 | 75 | – | > 75 | > 75 | > 80 | – |
| CCN(C)C=Nc1cc(C)c(Cc2ccc(Cl)cc2)cc1Cl [Compound 79, N′-(2-chloro-4-(4-chlorobenzyl)-5-methylphenyl)-N-ethyl-N-methylformimidamide] | > 80 | > 80 | 75 | – | > 75 | > 75 | > 80 | – |
| CCN(C)C=Nc1cc(C)c(Cc2cccc(C(F)(F)F)c2)cc1Cl [Compound 80, N′-(2-chloro-5-methyl-4-(3-(trifluoromethyl)benzyl)phenyl)-N-ethyl-N-methylformimidamide] | > 80 | > 80 | 75 | – | > 75 | > 75 | > 80 | – |
| CCN(C)C=Nc1cc(C)c(Cc2ccc(F)cc2Cl)cc1Cl [Compound 99, N′-(2-chloro-4-(2-chloro-4-fluorobenzyl)-5-methylphenyl)-N-ethyl-N-methylformimidamide] | > 80 | > 80 | 75 | – | > 75 | > 75 | > 80 | – |
| CCN(C)C=Nc1cc(C)c(Cc2ccc(F)c(C)c2)cc1Cl [Compound 119, N′-(2-chloro-4-(4-fluoro-3-methylbenzyl)-5-methylphenyl)-N-ethyl-N-methylformimidamide] | > 80 | > 80 | 75 | – | > 75 | > 75 | > 80 | – |
| CCN(C)C=Nc1cc(C)c(Cc2ccc(OC(F)(F)F)cc2)cc1Cl [Compound 121, N′-(2-chloro-5-methyl-4-(4-(trifluoromethoxy)benzyl)phenyl)-N-ethyl-N-methylformimidamide] | > 80 | > 80 | 75 | – | > 75 | > 75 | > 80 | – |
| CCN(C)C=Nc1cc(C)c(Cc2cc(F)cc(F)c2)cc1C [Compound 132, N′-(4-(3,5-difluorobenzyl)-2,5-dimethylphenyl)-N-ethyl-N-methylformimidamide] | > 80 | > 80 | 75 | – | > 75 | > 75 | > 80 | – |
| CCN(C)C=Nc1cc(C)c(Cc2ccc(C(F)(F)F)c(F)c2)cc1Cl [Compound 137, N′-(2-chloro-4-(3-fluoro-4-(trifluoromethyl)benzyl)-5-methylphenyl)-N-ethyl-N-methylformimidamide] | > 80 | > 80 | 75 | – | > 75 | > 75 | > 80 | – |
| CCN(C)C=Nc1cc(C)c(Cc2c(Cl)cccc2Cl)cc1C [Compound 153, N′-(4-(2,6-dichlorobenzyl)-2,5-dimethylphenyl)-N-ethyl-N-methylformimidamide] | > 80 | > 80 | 75 | – | > 75 | > 75 | > 80 | – |
| CCN(C)C=Nc1cc(C)c(Cc2c(F)cccc2Cl)cc1C [Compound 155, N′-(4-(2-chloro-6-fluorobenzyl)-2,5-dimethylphenyl)-N-ethyl-N-methylformimidamide] | > 80 | > 80 | 75 | – | > 75 | > 75 | > 80 | – |
| CCN(C)C=Nc1cc(C)c(Cc2cc(F)cc(OC)c2)cc1C [Compound 156, N-ethyl-N′-(4-(3-fluoro-5-methoxybenzyl)-2,5-dimethylphenyl)-N-methylformimidamide] | > 80 | > 80 | 75 | – | > 75 | > 75 | > 80 | – |
| CCN(C)C=Nc1cc(C)c(Cc2ccc(F)c(C(F)(F)F)c2)cc1Cl [Compound 181, N′-(2-chloro-4-(4-fluoro-3-(trifluoromethyl)benzyl)-5-methylphenyl)-N-ethyl-N-methylformimidamide] | > 80 | > 80 | 75 | – | > 75 | > 75 | – | – |
| CCN(C)C=Nc1cc(C)c(C(C#N)c2ccc(F)cc2)cc1Cl (stereo not drawn) [Compound 189, N′-(2-chloro-4-(cyano(4-fluorophenyl)methyl)-5-methylphenyl)-N-ethyl-N-methylformimidamide] | > 80 | > 80 | 75 | – | – | > 75 | – | – |
| CCN(C)C=Nc1cc(C)c(Cc2ccc(C)cc2)cc1F [Compound 211, N-ethyl-N-(2-fluoro-5-methyl-4-(4-methylbenzyl)phenyl)-N-methylformimidamide] | – | – | – | – | – | – | – | 75 |
| CCN(C)C=Nc1cc(C)c(Cc2cccc(OC(F)(F)F)c2)cc1C1CC1 [Compound 224, N′-(2-cyclopropyl-5-methyl-4-(3-(trifluoromethoxy)benzyl)phenyl)-N-ethyl-N-methylformimidamide] | > 80 | > 80 | 75 | > 70 | > 75 | > 75 | – | – |
| CCN(C)C=Nc1cc(Cl)c(C(C)(C(=O)N(C)C)c2cccc(F)c2)cc1C (stereo not drawn) [Compound 239, 2-(2-chloro-4-(((ethyl(methyl)amino)methylene)amino)-5-methylphenyl)-2-(3-fluorophenyl)-N,N-dimethylpropanamide] | > 80 | > 80 | 75 | – | > 75 | > 75 | > 80 | – |
| CCN(C)C=Nc1cc(C#N)c(Cc2cccc(F)c2)cc1C [Compound 250, N′-(5-cyano-4-(3-fluorobenzyl)-2-methylphenyl)-N-ethyl-N-methylformimidamide] | > 80 | > 80 | 75 | > 70 | > 75 | > 75 | – | – |
| CCN(C)C=Nc1cc(C#N)c(Cc2ccc(C)cc2)cc1C [Compound 252, N′-(5-cyano-2-methyl-4-(4-methylbenzyl)phenyl)-N-ethyl-N-methylformimidamide] | > 80 | > 80 | 75 | > 70 | > 75 | > 75 | – | – |
| CCN(C)C=Nc1cc(F)c(Cc2ccccc2Cl)cc1F [Compound 253, N′-(4-(2-chlorobenzyl)-2,5-difluorophenyl)-N-ethyl-N-methylformimidamide] | > 80 | > 80 | 75 | – | > 75 | > 75 | – | – |
| CCN(C)C=Nc1cc(F)c(Cc2cccc(F)c2)cc1F [Compound 269, N′-(2,5-difluoro-4-(3-fluorobenzyl)phenyl)-N-ethyl-N-methylformimidamide] | > 80 | > 80 | 75 | – | > 75 | > 75 | > 80 | – |
| CCN(C)C=Nc1ccc(Cc2ccccc2C)c2ccccc12 [Compound 271, N-ethyl-N-methyl-N′-(4-(2-methylbenzyl)naphthalen-1-yl)formimidamide] | > 80 | > 80 | 75 | > 70 | > 75 | > 75 | – | – |
